# Measurements as given in BindingDB's records for doi:10.1016/s0968-0896(02)00069-x (Universidad De Navarra, 2002).
# pIC50: −log10 of the molar value. Counter-ions that a name gives are not always drawn.
# Target: Cyclin-dependent kinase 1/G2/mitotic-specific cyclin-B (Marthasterias glacialis, UniProt P15206+Q9DGD3)
# Assay: Kinase Inhibition Assay
# Details: pH 7.2; 30 °C
# Protocol: Kinase activities were assayed in buffers containing substrate, enzyme, and inhibitor at 30 °C in the presence of 15 uM ATP/ [gamma-32P] ATP. 32P incorporation was measured with a scintillation counter. The IC50 is the inhibitor concentration, which inhibits 50% of kinase activity that catalyzes the transfer of the terminal phosphate from 32P labeled ATP to the substrate.
# Sequence of Cyclin-dependent kinase 1/G2/mitotic-specific cyclin-B (Q9DGD3 whole entry): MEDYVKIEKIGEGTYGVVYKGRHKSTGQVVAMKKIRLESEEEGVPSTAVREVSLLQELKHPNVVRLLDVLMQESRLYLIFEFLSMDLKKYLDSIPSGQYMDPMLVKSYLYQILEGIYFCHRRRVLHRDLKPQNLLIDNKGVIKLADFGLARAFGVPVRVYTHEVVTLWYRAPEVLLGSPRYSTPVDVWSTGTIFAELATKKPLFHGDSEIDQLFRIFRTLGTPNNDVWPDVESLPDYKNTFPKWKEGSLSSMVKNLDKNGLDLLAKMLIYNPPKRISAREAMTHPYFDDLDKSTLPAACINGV
# Sequence of Cyclin-dependent kinase 1/G2/mitotic-specific cyclin-B (P15206 whole entry): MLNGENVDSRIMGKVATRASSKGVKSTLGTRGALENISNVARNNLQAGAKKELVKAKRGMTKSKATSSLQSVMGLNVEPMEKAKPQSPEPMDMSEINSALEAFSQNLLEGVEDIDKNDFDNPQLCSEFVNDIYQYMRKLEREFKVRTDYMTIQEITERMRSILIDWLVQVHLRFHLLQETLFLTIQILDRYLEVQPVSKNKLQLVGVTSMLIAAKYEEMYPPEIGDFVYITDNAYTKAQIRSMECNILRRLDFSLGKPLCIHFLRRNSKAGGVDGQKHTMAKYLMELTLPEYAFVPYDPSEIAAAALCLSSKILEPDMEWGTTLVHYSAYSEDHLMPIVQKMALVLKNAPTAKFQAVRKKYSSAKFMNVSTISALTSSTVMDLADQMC
row,SMILES,pIC50
1,"Clc1ccc2nc3[nH]nc(Cl)c3nc2c1 [3,6-Dichloro-1H-pyrazolo[3,4-b]quinoxaline]",4.82
2,"Nc1n[nH]c2nc3ccc(Cl)cc3nc12 [6-chloro-1H-pyrazolo[3,4-b]quinoxalin-3-amine]",5.34
3,"Clc1n[nH]c2nc3ccccc3nc12 [3-Chloro-1H-pyrazolo[3,4-b]quinoxaline]",4.66
4,"Nc1n[nH]c2nc3ccc(C(F)(F)F)cc3nc12 [3-Amino-6-trifluoromethyl-1H-pyrazolo[3,4-b]quinoxaline]",5.35
5,"CCN(CC)CCn1nc(N)c2nc3cc(C)c(C)cc3nc21 [3-Amino-6,7-dimethyl-1-(2-diethylamino-ethyl)-1H-pyrazolo[3,4-b]quinoxaline]",< 5.00
6,"Cc1ccc2nc3[nH]nc(N)c3nc2c1 [3-Amino-6-methyl-1H-pyrazolo[3,4-b]quinoxaline]",5.46
7,"CCN(CC)CCn1nc(N)c2nc3cc(Cl)ccc3nc21 [6-chloro-1-[2-(diethylamino)ethyl]-1H-pyrazolo[3,4-b]quinoxalin-3-amine]",< 5.00
8,"Cc1cc2nc3[nH]nc(N)c3nc2cc1C [3-Amino-6,7-dimethyl-1H-pyrazolo[3,4-b]quinoxaline]",4.68
9,"CN(C)CCCn1nc(N)c2nc3cc(Cl)ccc3nc21 [6-chloro-1-[3-(dimethylamino)propyl]-1H-pyrazolo[3,4-b]quinoxalin-3-amine]",< 5.00
10,"Nc1n[nH]c2nc3ccccc3nc12 [1H-pyrazolo[3,4-b]quinoxalin-3-amine]",6.22
11,"CCN(CC)CCn1nc(N)c2nc3ccccc3nc21 [1-[2-(diethylamino)ethyl]-1H-pyrazolo[3,4-b]quinoxalin-3-amine]",< 5.00
12,"CN(C)CCCn1nc(N)c2nc3ccccc3nc21 [3-Amino-1-(3-dimethylamino-prop-1-yl)-1H-pyrazolo[3,4-b]quinoxaline hydrochloride]",< 5.00
13,"Cc1cc2nc3c(N)nn(CCCN(C)C)c3nc2cc1C [1-[3-(dimethylamino)propyl]-6,7-dimethyl-1H-pyrazolo[3,4-b]quinoxalin-3-amine]",< 5.00
14,"Nc1nn(C(=O)c2ccncc2)c2nc3ccccc3nc12 [3-amino-1-(pyridin-4-yl-carbonyl)-1H-pyrazolo[3,4-b]quinoxaline]",< 5.00
15,"CN(C)CCn1nc(N)c2nc3ccccc3nc21 [1-[2-(dimethylamino)ethyl]-1H-pyrazolo[3,4-b]quinoxalin-3-amine]",< 5.00
16,"COc1ccc2[nH]c3nnc(N)c-3nc2c1 [6-methoxy-1H-pyrazolo[3,4-b]quinoxalin-3-amine]",5.32
17,"CN(C)CCn1nc(N)c2nc3cc(Cl)ccc3nc21 [3-Amino-6-chloro-1-(2-dimethylamino-ethyl)-1H-pyrazolo[3,4-b]quinoxaline]",< 5.00
